# According to patent US20110275574A1, “METHOD OF INHIBITING PROLIFERATION OF HEPATIC STELLATE CELLS” (Agency for Science, Technology and Research, priority 2009, published 2011):
# d = 2'-deoxy (DNA); r = 2'-OH (RNA)
# Key:
# pCx43 Ser368 = assay: Phosphorylation of Cx43 at serine 368 by Western blot in HSC-2 cells; format: cell-based, rat
# Experimental: (§1) Hepatic stellate cells treatment with recombinant human TGF-β1: Twenty four hours prior to treatment, HSCs were seeded in 75 cm^2 tissue culture flasks. At 60-70% cell confluence, recombinant human TGF-β1 (hTGF-[3]) was added at a final concentration of 1 or 10 ng/ml and incubated for 2, 6, 10, 24 or 30 hours. For the control treatment, only phosphate-buffered saline (PBS) was given to the cells. In some experiments, HSC-2 cells were treated with bisindolylmaleimide I (BIM I) at a final concentration of 5 μM for 30 min before treatment with 10 ng/ml hTGF-β1.
# (§2) SDS-PAGE and Western blot: Cell lysis and subsequent separation of total protein in SDS-PAGE followed by Western blot was performed as recently described (Lim et al., 2008). The membrane was blocked with 5% non-fat milk in TBS-Tween (TBS-T). The Cx43 (sc-9059, Santa Cruz Biotechnology, USA), phosphorylated Cx43 at serine 368 (pCx43 Ser368, 3511S, Cell Signaling Technology, USA), PCNA (Ab29, Abcam, UK) and β-actin (A2228, Sigma, USA) primary antibodies were applied at a dilution of 1:1000, 1:750, 1:5000 and 1:7500 respectively in blocking solution. […] Semi-quantitative densitometric analysis of Western blots was performed using the ImageJ software (W. Rasband, NIH; rsb.info.nih.gov/ij/).
# HSC-2 cells [1] = assay: gap-FRAP analysis of gap junction intercellular communication; format: cell-based, rat
# Experimental: Analysis of gap junction intercellular communication: HSC-2 cells were grown in a 60 mm cell culture dish overnight. At 90% cell confluence, hTGF-β1 (final concentration 10 ng/ml) or carbenoxolone (final concentration 40 μM) was added and incubated for 6 hours. As control, only PBS was given to the cells. Alternatively, BIM I (final concentration 5 μM) was added 30 minutes before the addition of hTGF-[3]. After a brief rinse in PBS, cells were incubated in D-MEM without phenol red, containing 5,6-carboxyfluorescein diacetate (Research Organics, USA) at a final concentration of 50 μg/ml and incubated in a 37° C. humidified incubator for 30 min. The cells were then rinsed twice with PBS and D-MEM without phenol red was added before proceeding with the Fluorescence Recovery After Photobleaching (FRAP) assay. The FRAP application included in the software package of the LEICA TCS SP2 equipped with the DM6000 (LEICA, Germany) was used. A 63× immersed objective (Leica HCX APO L U-V-I 63×/0.90 Water UV) was used. The argon laser at 488 nm was used for excitation and the fluorescence signal was captured between 500 and 535 nm. The conditions were as follows: 5 pre-bleach scans at 10% laser power, 40 bleach scans at 100% laser power followed by 60 post-bleach scans at 15 seconds intervals. During the bleaching period, the Zoom mode was used to bleach a single cell (target cell) defined in a region of interest (ROI). All data were corrected for photobleaching during post-bleach acquisition using the whole scanned area. The time constant of recovery, tau (τ), was estimated by fitting the corrected experimental data (OriginPro 7 SR4, OriginLab USA) to the following function: F(t)=F0+(F∞−F0)(1−e^−t/τ), with F(t) being the corrected fluorescence intensity and F∞ being the asymptotic value of the fluorescence intensity. The transfer constant (k) was calculated from k=1/τ and normalized by dividing by the number of cells in contact with the target cell. The fluorescence recovery for each cell was about 50%.
# Cx43 mRNA = Cx43 mRNA expression by quantitative real-time PCR in HSC-2 cells; format: cell-based, rat; conditions: for down-regulation of Cx43 mRNA: HSC-2, Cx43 siRNA 10 nM, 48 hours, relative to mock-transfected
# Experimental: (§3) Cell culture conditions: Primary hepatic stellate cells were isolated from male Wistar rats according to a previously published procedure (Weiskirchen and Gressner, 2005). The protocol was approved by the Institutional Animal Care and Use Committee (IACUC) of the Biomedical Research Council of Singapore. The purity of primary HSCs was assessed by vitamin A autofluorescence one day after isolation. The cell line HSC-2 was described elsewhere (Maubach et al., 2008). All cells were cultivated in a humidified 37° C. incubator circulated with 5% CO2. High glucose Dulbecco's modified Eagle medium (D-MEM) containing 10% fetal bovine serum, 100 units/ml penicillin and 100 μg/ml streptomycin was used during cell culture. Trypsin-EDTA was purchased from Biochrome (Germany). All other cell culture reagents were from Invitrogen (CA, USA).
# as §1
# Reverse transcription and quantitative PCR: Total RNA was isolated from cells according to the manufacturer's protocol (RNA II kit, Machery-Nagel, Germany). All reagents for reverse transcription and real-time PCR were from Applied Biosystems (CA, USA). One microgram of total RNA was reverse transcribed to cDNA in a total reaction volume of 50 μl at conditions described in the RT kit (N8080234). Real-time PCR reactions were performed using the Fast Real Time PCR System (Applied Biosystems). Three microlitres of cDNA were used in a PCR reaction volume of 10 μl. The Taqman probes for target genes Cx43 and Snai1, as well as for endogenous control β-actin were Rn01433957_m1, Rn00441533_g1 and 4352341E, respectively. The PCR conditions were 95° C. for 20 s and 40 cycles of amplification at 95° C. for 3 s and 60° C. for 30 s.
# (§4) Snai1 and connexin 43 siRNAs transfection: Shortly before transfection, 1−2×10^6 HSC-2 cells were seeded in 100 mm cell culture dishes and incubated at 37° C. The siRNA was added at a final concentration of 10 nM to 1 ml of D-MEM without serum, followed by 120 μl of HiPerfect transfection reagent (Qiagen, Germany) and incubated for 10 min. The siRNA/transfection reagent solution was added drop-wise to the cells and incubated for 24 or 48 hours. As mock control, only HiPerfect reagent was added to the cells. The Snai1 siRNAs used were Rn_Snai1—1 and Rn_Snai1—3 and the Cx43 siRNAs used were Rn_Gja1—1 and Rn_Gja1—5 (Qiagen, Germany).
# HSC-2 cells [2] = assay: Cell counting (proliferation) of HSC-2 cells; format: cell-based, rat; conditions: for total number of cells: HSC-2, Cx43 siRNA 10 nM, 48 hours, versus mock-transfected
# Experimental: as §4
# Cell counting: After treatment, cells were washed once with PBS and detached using trypsin/EDTA. Following centrifugation at 800 rpm for 4 min, the cell pellet was resuspended in 1 ml D-MEM and the cells were counted using the forward scatter function of the GUAVA PCA-96 (Guava Technologies, CA, USA).
# Cx43 protein = Cx43 protein expression by Western blot in HSC-2 cells; format: cell-based, rat
# Experimental: Hepatic stellate cells treatment with recombinant human TGF-β1: Twenty four hours prior to treatment, HSCs were seeded in 75 cm^2 tissue culture flasks. […] For the control treatment, only phosphate-buffered saline (PBS) was given to the cells. In some experiments, HSC-2 cells were treated with bisindolylmaleimide I (BIM I) at a final concentration of 5 μM for 30 min before treatment with 10 ng/ml hTGF-β1.
# as §2, with “solution. After three washes in TBS-T, the appropriate secondary antibody conjugated with horse radish peroxidase (Santa Cruz Biotechnology, USA) was added at a dilution of 1:2000 in blocking solution. After three washes in TBS-T, the membrane was developed with ECL Plus (RPN2132, GE Healthcare, UK).” for “solution.”, “rsb.info.nih.gov/ij/). […]” for “rsb.info.nih.gov/ij/).”
# Snai1 = Snai1 mRNA and protein expression (real-time PCR, Western blot) in HSC-2 cells; format: cell-based, rat
# Experimental: as §1
# Reverse transcription and quantitative PCR: Total RNA was isolated from cells according to the manufacturer's protocol (RNA II kit, Machery-Nagel, Germany). All reagents for reverse transcription and real-time PCR were from Applied Biosystems (CA, USA). One microgram of total RNA was reverse transcribed to cDNA in a total reaction volume of 50 μl at conditions described in the RT kit (N8080234). Real-time PCR reactions were performed using the Fast Real Time PCR System (Applied Biosystems). […]
# SDS-PAGE and Western blot: Cell lysis and subsequent separation of total protein in SDS-PAGE followed by Western blot was performed as recently described (Lim et al., 2008). […] Semi-quantitative densitometric analysis of Western blots was performed using the ImageJ software (W. Rasband, NIH; rsb.info.nih.gov/ij/). […]
# Snai1 mRNA = Snai1 mRNA expression in in vitro activated primary HSCs; format: cell-based, rat; conditions: 1 and 10 ng/ml hTGF-β1, 10 hours
# Experimental: as §3
# Hepatic stellate cells treatment with recombinant human TGF-β1: Twenty four hours prior to treatment, HSCs were seeded in 75 cm^2 tissue culture flasks. At 60-70% cell confluence, recombinant human TGF-β1 (hTGF-[3]) was added at a final concentration of 1 or 10 ng/ml and incubated for 2, 6, 10, 24 or 30 hours. For the control treatment, only phosphate-buffered saline (PBS) was given to the cells. […]
# Reverse transcription and quantitative PCR: Total RNA was isolated from cells according to the manufacturer's protocol (RNA II kit, Machery-Nagel, Germany). […]
# [3] = system: Snai1 consensus sequence in the Cx43 promoter; assay: Electrophoretic mobility shift assay, HSC-2 nuclear extract on Snai1 consensus sequence of rat Cx43 promoter; format: cell-based; conditions: nuclear extract of HSC-2, 10 ng/ml hTGF-β1 2 hours, versus untreated
# Description: Electrophoretic mobility shift assay: Based on the rat Cx43 gene (NW—001084790), biotinylated double-stranded oligonucleotide probe […]-3 [SEQ ID NO: 12], with the Snai1 consensus sequence (underlined), was synthesized (Research Biolabs, Singapore). In the mutated double-stranded oligonucleotide, the Snai1 consensus sequence was changed to CAGGAA. Nuclear protein extract was obtained using the NE-PER Nuclear and Cytoplasmic Extraction kit (Pierce, USA). The electrophoretic mobility shift assay was performed using reagents from the Snai1 kit according to its protocol (AY1398, Panomics, USA). Briefly, 5 μg nuclear protein extract was incubated in a reaction mixture consisting of poly d(1-C), 5× binding buffer and nuclease-free water for 5 min before addition of 1 μl probe (stock 20 nM). The total reaction volume was 10 μl. For competition assay, 2 μl unlabeled probe (stock 2 μM) was added 5 min prior to the addition of labeled probe. The reaction was incubated at 15° C. for 30 min. The samples were separated in a 6% non-denaturing polyacrylamide gel (Invitrogen) and transferred onto a nylon membrane.
# PCNA = assay: Expression of proliferation marker PCNA by Western blot in HSC-2 cells; format: cell-based, rat; conditions: HSC-2, 10 ng/ml hTGF-β1, 48 hours
# Experimental: SDS-PAGE and Western blot: Cell lysis and subsequent separation of total protein in SDS-PAGE followed by Western blot was performed as recently described (Lim et al., 2008). The membrane was blocked with 5% non-fat milk in TBS-Tween (TBS-T). The Cx43 (sc-9059, Santa Cruz Biotechnology, USA), phosphorylated Cx43 at serine 368 (pCx43 Ser368, 3511S, Cell Signaling Technology, USA), PCNA (Ab29, Abcam, UK) and β-actin (A2228, Sigma, USA) primary antibodies were applied at a dilution of 1:1000, 1:750, 1:5000 and 1:7500 respectively in blocking solution. After three washes in TBS-T, the appropriate secondary antibody conjugated with horse radish peroxidase (Santa Cruz Biotechnology, USA) was added at a dilution of 1:2000 in blocking solution. After three washes in TBS-T, the membrane was developed with ECL Plus (RPN2132, GE Healthcare, UK). The incubation with pCx43 antibody was performed overnight at 4° C. All other incubations were carried out for 1 hour at room temperature. Semi-quantitative densitometric analysis of Western blots was performed using the ImageJ software (W. Rasband, NIH; rsb.info.nih.gov/ij/).
# Snai1 and connexin 43 siRNAs transfection: Shortly before transfection, 1−2×10^6 HSC-2 cells were seeded in 100 mm cell culture dishes and incubated at 37° C. […]
# [4] = HSC-2, 10 ng/ml hTGF-β1, up to 30 hours
# [5] = HSC-2, 10 ng/ml hTGF-β1, 48 hours
compound,measurement,setting,value
"CN(C)CCCn1cc(C2=C(c3c[nH]c4ccccc34)C(=O)NC2=O)c2ccccc21 [BIM I, bisindolylmaleimide I, reference compound]",phosphorylation of Cx43 at serine 368 after hTGF-β1,"pCx43 Ser368; HSC-2, 5 μM BIM I 30 min before 10 ng/ml hTGF-β1",reduces
same,TGF-β1-induced down-regulation of GJIC,"HSC-2 cells [1]; HSC-2, 5 μM BIM I 30 minutes before 10 ng/ml hTGF-β1",attenuated
CC1(C)[C@@H](OC(=O)CCC(=O)O)CC[C@]2(C)[C@H]3C(=O)C=C4[C@@H]5C[C@@](C)(C(=O)O)CC[C@]5(C)CC[C@@]4(C)[C@]3(C)CC[C@@H]12 [carbenoxolone],"dye transfer rate (k), reduced to","HSC-2 cells [1]; HSC-2, 40 μM carbenoxolone, 6 hours",about 50%
"Cx43 siRNA 1: Cx43 siRNA, sense strand r(CAG UGC ACA UGU AAC UAA U)dTdT [SEQ ID NO: 6], antisense SEQ ID NO: 7 (Qiagen) (sense CAGUGCACAUGUAACUAAUTT; antisense AUUAGUUACAUGUGCACUGTT; sugars from the 5' end r19 d2, backbone not given here)",down-regulation of Cx43 mRNA,Cx43 mRNA,about 65%
same,total number of cells,HSC-2 cells [2],significant decline
"Cx43 siRNA 5: Cx43 siRNA, sense strand r(GGU AAG CUU CCC UGG UCU A)dTdT [SEQ ID NO: 9], antisense SEQ ID NO: 10 (Qiagen) (sense GGUAAGCUUCCCUGGUCUATT; antisense UAGACCAGGGAAGCUUACCTT; sugars from the 5' end r19 d2, backbone not given here)",down-regulation of Cx43 mRNA,Cx43 mRNA,about 65%
same,total number of cells,HSC-2 cells [2],significant decline
"hTGF-β1: recombinant human TGF-β1, pro-fibrogenic cytokine added to HSCs",decrease of Cx43 transcripts,"Cx43 mRNA; HSC-2, 1 ng/ml hTGF-β1, 10 hours",30%
same,decrease of Cx43 transcripts,"Cx43 mRNA; HSC-2, 10 ng/ml hTGF-β1, 10 hours",45%
same,Cx43 transcript and protein expression,Cx43 mRNA; [4],decrease
same,expression of Cx43,Cx43 protein; [5],significant reduction
same,Cx43 protein regulation,"Cx43 protein; HSC-2, 1 and 10 ng/ml hTGF-β1, 24 hours",down-regulated
same,phosphorylation of Cx43 at serine 368,"pCx43 Ser368; HSC-2, 10 ng/ml hTGF-β1, 6 hours",increase
same,"transfer rate of the fluorescence dye 5,6-carboxyfluorescein diacetate","HSC-2 cells [1]; HSC-2, 10 ng/ml hTGF-β1, 6 hours, versus PBS control",significantly lower
same,Snai1 transcript and protein expression,Snai1; [4],increase
same,Snai1 mRNA,"Snai1; HSC-2, 1 and 10 ng/ml hTGF-β1, 10 hours",induced
same,Snai1 mRNA,Snai1 mRNA,induced
same,EMSA band of Snai1-oligonucleotide complex,[3],more intense band
same,cell number,HSC-2 cells [2]; [5],significant reduction
same,expression of PCNA,PCNA,significant reduction
